Reference: patent US20190127366A1 (LifeSci Pharmaceuticals, Inc., priority 2015, published 2019)
pIC50: −log10 of the molar value.

biological target: T1, human complement factor D (Homo sapiens, UniProt P00746); assay: In vitro enzyme inhibition (Z-Lys-SBzl/DTNB absorbance assay); type: biochemical; conditions: Complement Factor D (R&D Systems), substrate Z-Lys-SBzl, A405 nm; read-out: CFD IC50
T1 construct: purchased R&D Systems 1824-SE
Summary of the method: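 Factor D (6.25 ng/μL before addition) preincubated 5 min RT with compound (8 points from 50 μM, 6-fold, 0.5% DMSO final) in 50 mM Tris/HCl pH 7.5, 1 M NaCl, then Z-Lys-SBzl/DTNB added (200 μM each before addition). A405 read kinetically every 30 s for 60 min; IC50 from variable-slope fit, controls with and without enzyme.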

T1 sequence (P00746 26-253): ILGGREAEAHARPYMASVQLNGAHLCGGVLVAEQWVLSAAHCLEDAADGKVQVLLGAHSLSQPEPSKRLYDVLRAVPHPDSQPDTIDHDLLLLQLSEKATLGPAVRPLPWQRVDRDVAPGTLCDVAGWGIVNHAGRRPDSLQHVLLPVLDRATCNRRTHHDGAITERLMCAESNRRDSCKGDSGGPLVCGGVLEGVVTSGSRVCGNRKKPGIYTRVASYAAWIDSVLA

Compound	pIC50
NC(=O)c1nn(CC(=O)N2[C@@H]3CC[C@@H](C3)[C@H]2C(=O)Nc2cnc3ccccc3n2)c2ccccc12 [Example 45, 1-(2-oxo-2-((1R,3S,4S)-3-(quinoxalin-2-ylcarbamoyl)-2-azabicyclo[2.2.1]heptan-2-yl)ethyl)-1H-indazole-3-carboxamide]	5.00 to 6.00
NC(=O)c1nn(CC(=O)N2[C@@H]3CC[C@@H](C3)[C@H]2C(=O)NCc2cnc3[nH]cc(Cl)c3c2)c2ccccc12 [Example 48, 1-(2-((1R,3S,4S)-3-(((3-chloro-1H-pyrrolo[2,3-b]pyridin-5-yl)methyl)carbamoyl)-2-azabicyclo[2.2.1]heptan-2-yl)-2-oxoethyl)-1H-indazole-3-carboxamide]	< 5.00
NC(=O)c1nn(CC(=O)N2[C@@H]3CC[C@@H](C3)[C@H]2C(=O)Nc2ccnc(Cl)c2)c2ccccc12 [Example 57, 1-(2-((1R,3S,4S)-3-((2-chloropyridin-4-yl)carbamoyl)-2-azabicyclo[2.2.1]heptan-2-yl)-2-oxoethyl)-1H-indazole-3-carboxamide]	5.00 to 6.00
NC(=O)c1nn(CC(=O)N2[C@@H]3CC[C@@H](C3)[C@H]2C(=O)NCc2ccc3[nH]cc(Cl)c3c2F)c2ccccc12 [Example 47, 1-(2-((1R,3S,4S)-3-(((3-chloro-4-fluoro-1H-indol-5-yl)methyl)carbamoyl)-2-azabicyclo[2.2.1]heptan-2-yl)-2-oxoethyl)-1H-indazole-3-carboxamide]	< 5.00
NC(=O)c1nn(CC(=O)N2[C@@H]3CC[C@@H](C3)[C@H]2C(=O)Nc2ccc(CO)c(Cl)n2)c2ccccc12 [Example 108, 1-(2-((1R,3S,4S)-3-((6-chloro-5-(hydroxymethyl)pyridin-2-yl)carbamoyl)-2-azabicyclo[2.2.1]heptan-2-yl)-2-oxoethyl)-1H-indazole-3-carboxamide]	5.00 to 6.00
CNC(=O)c1nn(CC(=O)N2[C@@H]3CC[C@@H](C3)[C@H]2C(=O)Nc2cccc(Cl)n2)c2ccccc12 [Example 88, 1-(2-((1R,3S,4S)-3-((6-chloropyridin-2-yl)carbamoyl)-2-azabicyclo[2.2.1]heptan-2-yl)-2-oxoethyl)-N-methyl-1H-indazole-3-carboxamide]	5.00 to 6.00
NC(=O)c1nn(CC(=O)N2[C@@H]3CC[C@@H](C3)[C@H]2C(=O)Nc2cc(CO)cc(Cl)n2)c2ccccc12 [Example 105, 1-(2-((1R,3S,4S)-3-((6-chloro-4-(hydroxymethyl)pyridin-2-yl)carbamoyl)-2-azabicyclo[2.2.1]heptan-2-yl)-2-oxoethyl)-1H-indazole-3-carboxamide]	6.00 to 7.00
NC(=O)c1nn(CC(=O)N2[C@@H]3CC[C@@H](C3)[C@H]2C(=O)NCc2cc3c(Cl)c[nH]c3cc2F)c2ccccc12 [Example 198, 1-(2-((1R,3S,4S)-3-(((3-chloro-6-fluoro-1H-indol-5-yl)methyl)carbamoyl)-2-azabicyclo[2.2.1]heptan-2-yl)-2-oxoethyl)-1H-indazole-3-carboxamide]	< 5.00
Cc1cccc(NC(=O)[C@@H]2[C@H]3CC[C@H](C3)N2C(=O)Cn2nc(C(N)=O)c3ccncc32)n1 [Example 7, 1-(2-((1R,3S,4S)-3-((6-methylpyridin-2-yl)carbamoyl)-2-azabicyclo[2.2.1]heptan-2-yl)-2-oxoethyl)-1H-pyrazolo[3,4-c]pyridine-3-carboxamide]	5.00 to 6.00
COc1cccc(NC(=O)[C@@H]2[C@H]3CC[C@H](C3)N2C(=O)Cn2nc(C(N)=O)c3ccccc32)n1 [Example 50, 1-(2-((1R,3S,4S)-3-((6-methoxypyridin-2-yl)carbamoyl)-2-azabicyclo[2.2.1]heptan-2-yl)-2-oxoethyl)-1H-indazole-3-carboxamide]	5.00 to 6.00
CC(=O)c1nn(CC(=O)N2[C@H](C(=O)Nc3cccc(Cl)n3)C[C@@H]3CCC[C@@H]32)c2ccc(C)cc12 [Example 176, (2S,3aS,6aS)-1-(2-(3-acetyl-5-methyl-1H-indazol-1-yl)acetyl)-N-(6-chloropyridin-2-yl)octahydrocyclopenta[b]pyrrole-2-carboxamide]	6.00 to 7.00
NC(=O)Cc1ccc2c(C(N)=O)nn(CC(=O)N3[C@@H]4CC[C@@H](C4)[C@H]3C(=O)NCc3cccc(Cl)c3F)c2c1 [Example 128, 6-(2-amino-2-oxoethyl)-1-(2-((1R,3S,4S)-3-((3-chloro-2-fluorobenzyl)carbamoyl)-2-azabicyclo[2.2.1]heptan-2-yl)-2-oxoethyl)-1H-indazole-3-carboxamide]	5.00 to 6.00
CC(=O)c1nn(CC(=O)N2[C@H](C(=O)Nc3cccc(Cl)n3)C[C@@H]3CCC[C@@H]32)c2ccc(Cl)cc12 [Example 178, (2S,3aS,6aS)-1-(2-(3-acetyl-5-chloro-1H-indazol-1-yl)acetyl)-N-(6-chloropyridin-2-yl)octahydrocyclopenta[b]pyrrole-2-carboxamide]	6.00 to 7.00
NC(=O)c1nn(CC(=O)N2[C@H](C(=O)Nc3cccc(Br)n3)C[C@@H]3CCC[C@@H]32)c2ccccc12 [Example 164, 1-(2-((2S,3aS,6aS)-2-((6-bromopyridin-2-yl)carbamoyl)hexahydrocyclopenta[b]pyrrol-1(2H)-yl)-2-oxoethyl)-1H-indazole-3-carboxamide]	6.00 to 7.00
N#Cc1ccc(Cl)nc1NC(=O)[C@@H]1[C@H]2CC[C@H](C2)N1C(=O)Cn1nc(C(N)=O)c2ccccc21 [Example 101, 1-(2-((1R,3S,4S)-3-((6-chloro-3-cyanopyridin-2-yl)carbamoyl)-2-azabicyclo[2.2.1]heptan-2-yl)-2-oxoethyl)-1H-indazole-3-carboxamide]	6.00 to 7.00
COC(=O)c1nn(CC(=O)N2[C@@H]3CC[C@@H](C3)[C@H]2C(=O)Nc2cccc(Cl)n2)c2ccccc12 [Example 82, methyl 1-(2-((1R,3S,4S)-3-((6-chloropyridin-2-yl)carbamoyl)-2-azabicyclo[2.2.1]heptan-2-yl)-2-oxoethyl)-1H-indazole-3-carboxylate]	5.00 to 6.00
NC(=O)CC(NC(=O)[C@@H]1[C@H]2CC[C@H](C2)N1C(=O)Cn1nc(C(N)=O)c2ccccc21)c1cccc(Cl)c1F (stereo partly drawn) [Example 144, 1-(2-((1R,3S,4S)-3-((3-amino-1-(3-chloro-2-fluorophenyl)-3-oxopropyl)carbamoyl)-2-azabicyclo[2.2.1]heptan-2-yl)-2-oxoethyl)-1H-indazole-3-carboxamide]	5.00 to 6.00
NCCC(NC(=O)[C@@H]1[C@H]2CC[C@H](C2)N1C(=O)Cn1nc(C(N)=O)c2ccccc21)c1cccc(Cl)c1F (stereo partly drawn) [Example 145, 1-(2-((1R,3S,4S)-3-((3-amino-1-(3-chloro-2-fluorophenyl)propyl)carbamoyl)-2-azabicyclo[2.2.1]heptan-2-yl)-2-oxoethyl)-1H-indazole-3-carboxamide]	5.00 to 6.00
NC(=O)c1cc(Cl)c(F)c(CNC(=O)[C@@H]2[C@H]3CC[C@H](C3)N2C(=O)Cn2nc(C(N)=O)c3ccccc32)c1 [Example 112, 1-(2-((1R,3S,4S)-3-((5-carbamoyl-3-chloro-2-fluorobenzyl)carbamoyl)-2-azabicyclo[2.2.1]heptan-2-yl)-2-oxoethyl)-1H-indazole-3-carboxamide]	5.00 to 6.00
NC(=O)c1nn(CC(=O)N2[C@@H]3CC[C@@H](C3)[C@H]2C(=O)Nc2cncc(Cl)c2)c2ccccc12 [Example 58, 1-(2-((1R,3S,4S)-3-((5-chloropyridin-3-yl)carbamoyl)-2-azabicyclo[2.2.1]heptan-2-yl)-2-oxoethyl)-1H-indazole-3-carboxamide]	5.00 to 6.00
NC(=O)n1nc(CC(=O)N2[C@@H]3CC[C@@H](C3)[C@H]2C(=O)NCc2cccc(Cl)c2F)c2ccccc21 [Example 100, 3-(2-((1R,3S,4S)-3-((3-chloro-2-fluorobenzyl)carbamoyl)-2-azabicyclo[2.2.1]heptan-2-yl)-2-oxoethyl)-1H-indazole-1-carboxamide]	6.00 to 7.00
NC(=O)c1nn(CC(=O)N2[C@@H]3CC[C@@H](C3)[C@H]2C(=O)Nc2cc(C(F)(F)F)ccn2)c2ccccc12 [Example 55, 1-(2-oxo-2-((1R,3S,4S)-3-((4-(trifluoromethyl)pyridin-2-yl)carbamoyl)-2-azabicyclo[2.2.1]heptan-2-yl)ethyl)-1H-indazole-3-carboxamide]	< 5.00
COC(=O)CC(NC(=O)[C@@H]1[C@H]2CC[C@H](C2)N1C(=O)Cn1nc(C(N)=O)c2ccccc21)c1cccc(Cl)c1F (stereo partly drawn) [Example 142, methyl 3-((1R,3S,4S)-2-(2-(3-carbamoyl-1H-indazol-1-yl)acetyl)-2-azabicyclo[2.2.1]heptane-3-carboxamido)-3-(3-chloro-2-fluorophenyl)propanoate]	5.00 to 6.00
NC(=O)c1nn(CC(=O)N2[C@@H]3CC[C@@H](C3)[C@H]2C(=O)Nc2cccc(-c3ccccc3F)n2)c2ccccc12 [Example 46, 1-(2-((1R,3S,4S)-3-((6-(2-fluorophenyl)pyridin-2-yl)carbamoyl)-2-azabicyclo[2.2.1]heptan-2-yl)-2-oxoethyl)-1H-indazole-3-carboxamide]	< 5.00
NC(=O)c1nn(CC(=O)N2[C@@H]3CC[C@@H](C3)[C@H]2C(=O)Nc2cccc(Cl)n2)c2ccc(F)cc12 [Example 62, 1-(2-((1R,3S,4S)-3-((6-chloropyridin-2-yl)carbamoyl)-2-azabicyclo[2.2.1]heptan-2-yl)-2-oxoethyl)-5-fluoro-1H-indazole-3-carboxamide]	6.00 to 7.00
CC(O)c1nn(CC(=O)N2[C@H](C(=O)Nc3cccc(Cl)n3)C[C@@H]3CCC[C@@H]32)c2ccccc12 (stereo partly drawn) [Example 181, (2S,3aS,6aS)-N-(6-chloropyridin-2-yl)-1-(2-(3-(1-hydroxyethyl)-1H-indazol-1-yl)acetyl)octahydrocyclopenta[b]pyrrole-2-carboxamide]	5.00 to 6.00
